Source: patent US7838234B2, “Methods for determining cancer resistance to histone deacetylase inhibitors” (Pharmacyclics, Inc., priority 2007, dated 2010)

What was measured:
[1] = tested on: primary colon tumor cells from newly diagnosed, naive patients; assay: Ex vivo growth inhibition of primary colon tumor cells from newly diagnosed, naive patients; format: cell-based, human; settings: ex vivo cultured cells from twelve patients, FIG. 11A
[2] = tested on: advanced metastatic colon tumor cells; assay: Ex vivo growth inhibition of advanced metastatic colon tumor cells; format: cell-based, human; settings: in a number of cases, FIG. 11B
[3] = tested on: HDACi resistance biomarker genes in colorectal tumor cells; assay: Microarray gene expression profiling of colorectal tumor cells treated with PCI-24781 or untreated; format: cell-based, human; settings: PCI-24781 2 μM vs untreated
Description: After determining tumor sensitivity to PCI-24781, gene expression profiles were determined for resistant and sensitive tumors that were treated with PCI-24781 (2 μM) or untreated. Total RNA was isolated using Qiagen procedures (Qiagen, Inc., Valencia, Calif.) and fluorescent probes were prepared and hybridized to Codelink Human Whole Genome oligonucleotide microarrays containing ˜55,000 unique probes (GE Healthcare Bio-Sciences Corp., Piscataway, N.J.) according to the manufacturer's instructions. The microarrays were scanned in a GenePix 4000B scanner (Molecular Devices Corporation, Sunnyvale Calif.). The images were processed with Codelink software and the exported data was analyzed as follows.
The median-normalized microarray data were imported into Genespring software (Agilent), and principal component analysis (PCA) and hierarchical clustering analysis were performed. We looked for consistent results from multiple analysis methods to provide additional confidence in our results. For multiple hypothesis correction, we used the q-values approach for false discovery rates (FDR) as described in Storey et al. (2003), Proc. Nat. Acad. Sci. USA, 100:9440-9445. As a second analytical approach we adopted the Bayesian ANOVA approach described in Ishwaran et al. (2003), J. Amer. Stat. Assoc., 98:438-455. […]

[4] = tested on: primary colorectal tumors (colon carcinoma biopsies); assay: Soft agar chemosensitivity assay (tritiated thymidine incorporation) of primary colorectal tumors ex vivo; format: cell-based, human
Excerpt: The method used soft agar chemosensitivity assays in which primary human tumors were exposed in culture to PCI-24781. Either a trititated thymidine or alamar blue assay was then used to estimate the percentage of resistance to PCI-24781. For example in the trititated thymidine assay, sensitive tumor cells affected by the drug divided less and therefore incorporated less thymidine, whereas resistant tumor cells continued to grow and divide and therefore incorporated more thymidine into their DNA.
Primary colorectal cancer (CRC) samples were obtained from patient biopsies (Table 2). Viable tumor cells were plated and cultured in soft agar as described in Kern et al. (1990), J. Natl. Cancer Inst., 82:582-588, and were treated with a range of PCI-24781 concentrations (0.01-2 μM). Tritiated thymidine was added to the culture after 3 days of exposure to the drug, and the amount of radioactivity incorporated into the cells after a further 2 days was quantified. The percentage of cell growth inhibition (% GI) was calculated by comparing the treated cells to the control cells, and from these growth profiles the tumors were classified as either sensitive or resistant based on deviation from the median profile.
(§1) Subsequently, primary human tumor samples were obtained and viable tumor cells were plated in soft agar and treated with the HDAC inhibitor PCI-24781. Tritiated thymidine was added after 3 days, and 2 days later the radioactivity incorporated into the DNA was quantified. The tumors were then classified as either resistant (EDR: Extreme Drug Resistance), sensitive (LDR) or intermediate (IDR) based on deviation from the median profile (Oncotech, Inc. Tustin, Calif.).

[5] = tested on: acetylated tubulin in PBMC; assay: Tubulin acetylation in peripheral blood mononuclear cells of treated mice (immunoblotting); format: in vivo, mouse; settings: female BALB/c mice, 50 mg/kg IV, 0.25-8 hours after dosing
Description: In brief, female BALB/c mice were injected IV with 50 mg/kg PCI-24781 or vehicle. Blood and various tissues were collected at 0.25, 0.5, 1, 2, 3 & 8 hours after dosing. For acetylated histone and tubulin detection, organs/tissues were pooled for each vehicle and drug-treated organ group. RNA and protein were extracted from the samples with the PARIS Protein and RNA Isolation System (Ambion). Levels of acetylated and total α-tubulin & histones were evaluated by immunoblotting.

[6] = tested on: Ovarian primary tumor cells; assay: Soft agar tritiated thymidine assay of primary human tumor samples, EDR/IDR/LDR classification: ovarian; format: cell-based
Description: as §1, with “Calif.). As predicted based on the HDACi responsive biomarker gene profiles hematopoietic tumors had the lowest proportion of resistant (EDR) tumors, and colon the most (38%). Among the solid tumors, ovarian had the lowest proportion of resistant tumors, consistent with the high HDACi-biomarker responsiveness of this tissue.” for “Calif.).”

[7] = tested on: Glioblastoma primary tumor cells; assay: Soft agar tritiated thymidine assay of primary human tumor samples, EDR/IDR/LDR classification: glioblastoma; format: cell-based
Description: as §1, with “Calif.). As predicted based on the HDACi responsive biomarker gene profiles hematopoietic tumors had the lowest proportion of resistant (EDR) tumors, and colon the most (38%). Among the solid tumors, ovarian had the lowest proportion of resistant tumors, consistent with the high HDACi-biomarker responsiveness of this tissue.” for “Calif.).”

[8] = tested on: Multiple Myeloma primary tumor cells; assay: Soft agar tritiated thymidine assay of primary human tumor samples, EDR/IDR/LDR classification: multiple myeloma; format: cell-based
Description: as §1, with “Calif.). As predicted based on the HDACi responsive biomarker gene profiles hematopoietic tumors had the lowest proportion of resistant (EDR) tumors, and colon the most (38%). Among the solid tumors, ovarian had the lowest proportion of resistant tumors, consistent with the high HDACi-biomarker responsiveness of this tissue.” for “Calif.).”

[9] = tested on: AML primary tumor cells; assay: Soft agar tritiated thymidine assay of primary human tumor samples, EDR/IDR/LDR classification: AML; format: cell-based
Description: as §1, with “Calif.). As predicted based on the HDACi responsive biomarker gene profiles hematopoietic tumors had the lowest proportion of resistant (EDR) tumors, and colon the most (38%). Among the solid tumors, ovarian had the lowest proportion of resistant tumors, consistent with the high HDACi-biomarker responsiveness of this tissue.” for “Calif.).”

[10] = tested on: HDACi-responsive biomarker genes; assay: Taqman mRNA levels of HDACi-responsive biomarker genes in mouse tissues after dosing; format: in vivo; settings: mice, 50 mg/kg, 3 and 8 hours after administration, 13 tissues
Description: RNA expression profiles were determined using on a GE-Codelink Mouse Unisetl 10K oligonucleotide arrays in duplicate. Each treated sample was normalized to the corresponding vehicle control. In order to validate the expression profile of HDADi-responsive genes identified by the gene expression array assays, Taqman gene expression assays were performed using Applied Biosystems Inc. assays. One-step RT-PCR was carried out in triplicate on 25 ng of total RNA from each sample on a ABI PRISM 7700 instrument. The mRNA levels for each gene were normalized to the amount of RNA in the well as measured in parallel using Ribogreen (Molecular Probes). The treated samples were then normalized to the vehicle control at that time point. We then determined the in vivo expression levels for five of the RDACi-responsive biomarker genes in various tissues following 3 hours or 8 hours following administration of PCI-24781 (50 mg/kg). A Taqman assay was performed to determine mRNA expression levels in brain, colon, kidney, liver, stomach, ovary, uterus, mammary, muscle, heart, lung, spleen, and pancreas. The issue distribution pattern was very reproducible across the biomarker set.

## CN(C)Cc1c(C(=O)NCCOc2ccc(C(=O)NO)cc2)oc2ccccc12 [PCI-24781]
[1]
  sensitivity to growth inhibition: all sensitive
[2]
  sensitivity to growth inhibition: resistant
[3]
  effect of treatment on expression of the identified resistance biomarker genes: not altered
[4]
  % Resistance: 38%
[4]; of 24 tumors
  Intermediate IDR (number of tumors): 3
  Resistant EDR (number of tumors): 9
  Sensitive LDR (number of tumors): 12
[5]
  tubulin acetylation levels in PBMC: increases
[6]
  % Resistance: 25%
[6]; of 12 tumors
  Intermediate IDR (number of tumors): 4
  Resistant EDR (number of tumors): 3
  Sensitive LDR (number of tumors): 5
[7]
  % Resistance: 29%
[7]; of 7 tumors
  Intermediate IDR (number of tumors): 1
  Resistant EDR (number of tumors): 2
  Sensitive LDR (number of tumors): 4
[8]
  % Resistance: 33%
[8]; of 6 tumors
  Intermediate IDR (number of tumors): 0
  Resistant EDR (number of tumors): 2
  Sensitive LDR (number of tumors): 4
[9]
  % Resistance: 10%
[9]; of 10 tumors
  Intermediate IDR (number of tumors): 4
  Resistant EDR (number of tumors): 1
  Sensitive LDR (number of tumors): 5
[10]
  tissue with highest induction of mRNA of five HDACi-responsive biomarker genes: Ovary showed the highest level of induction, followed by uterus
